Results taken from publication PMC7449217, “The FDA-Approved Drug Nelfinavir Inhibits Lytic Cell-Free but Not Cell-Associated Nonlytic Transmission of Human Adenovirus” (Antimicrobial Agents and Chemotherapy, 2020).
Where a name gives a salt, the structure may show the parent alone.

Experiments:
[1] = biological target: T1, L3/p23 cysteine protease (Human adenovirus C serotype 5, UniProt P03253); experiment: Western blot analysis of HAdV protease activity (pVI/VI, pVII/VII in purified HAdV-C5); assay type: cell-based; conditions: purified HAdV-C5 grown in the presence of nelfinavir
T1 construct: Double-CsCl-purified HAdV particles grown in the presence or absence of nelfinavir; endogenous in cells
T1 sequence (P03253 whole entry): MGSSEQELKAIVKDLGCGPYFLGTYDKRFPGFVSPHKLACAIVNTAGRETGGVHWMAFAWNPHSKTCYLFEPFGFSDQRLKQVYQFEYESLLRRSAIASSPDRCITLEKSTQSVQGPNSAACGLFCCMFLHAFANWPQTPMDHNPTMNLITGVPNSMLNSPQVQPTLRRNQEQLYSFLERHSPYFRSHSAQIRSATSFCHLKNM
Method: HAdV-C5 was amplified in medium containing 0, 1.25, or 3 μM nelfinavir for 4 days. Cells were harvested and disrupted by three freeze-thaw cycles. The cell debris was removed by freon extraction, and mature full HAdV virions were purified by two rounds of CsCl gradient ultracentrifugation ([162]). The protein concentration was determined by a bicinchoninic acid (BCA) assay (Pierce BCA protein assay kit; Thermo Fisher Scientific, Waltham, MA, USA). For long-term storage, virus stocks were supplemented with 10% (vol/vol) glycerol and kept at −80°C.
Double-CsCl-purified HAdV particles grown in the presence or absence of nelfinavir (HAdV-C5^±Nelfinavir stocks) and a size standard (PageRuler plus; Thermo Fisher Scientific, Waltham, MA, USA) were size separated on a 12% acrylamide gel under reducing conditions and transferred to a polyvinylidene difluoride (PVDF) membrane. HAdV proteins were detected using primary antibodies, 1:10,000 R72 rabbit antifiber ([181]), 1:1,000 rabbit anti-pVI/VI ([51]), and 1:1,000 R3 rabbit anti-pVII/VII (Ulf Pettersson, Uppsala University), and visualized using goat anti-rabbit-horseradish peroxidase (HRP) (catalog number 7074; Cell Signaling Technology, Danvers, MA, USA) and the ECL Prime Western blotting detection reagent (GE Healthcare, Pittsburgh, PA, USA). […]

[2] = system: MAdV-1-pIX-FS2A-GFP; experiment: fluorescence-based plaque-forming assay, CMT-93 cells; assay type: cell-based, mouse adenovirus 1
Method: Per 96-well plate, 15,000 A549 cells, 10,000 HeLa cells, 30,000 HBECs, 30,000 HCE cells, or 30,000 CMT-93 cells were seeded in 100 μl of the respective supplemented medium and allowed to settle for 1 h at room temperature (RT) prior to cell culture incubation at 37°C with 5% CO2 and 95% humidity. The following day, the medium was replaced with 50 μl of the respective virus stock dilution giving rise to 5 to 50 plaques per 96-well plate. Fifty microliters of nelfinavir to obtain a 0.1 to 50 μM final concentration or the DMSO solvent control was also added, both in supplemented medium. For each experiment, a noninfected, treated control was performed. […] Plates were imaged on either an IXM-XL or an IXM-C automated high-throughput fluorescence microscope (Molecular Devices, San Jose, CA, USA) using a 4× objective in wide-field mode. Hoechst staining was recorded in the 4′,6-diamidino-2-phenylindole (DAPI) channel, the fluorescein isothiocyanate (FITC)/GFP channel was acquired for viral GFP, and the tetramethyl rhodamine isothiocyanate (TRITC)/Texas Red channel was acquired for hexon immunofluorescence staining.
The infection phenotype for each well was quantified using Plaque2.0 ([101]). The number of plaques was determined based on the infection signal (viral GFP or hexon immunofluorescence staining). […] The mean TI50 was calculated as the EC50/TC50 ratio of the means. […]

[3] = system: HAdV-B34; experiment: fluorescence-based plaque-forming assay, A549 cells; assay type: cell-based, human adenovirus
Method: (§1) Per 96-well plate, 15,000 A549 cells, 10,000 HeLa cells, 30,000 HBECs, 30,000 HCE cells, or 30,000 CMT-93 cells were seeded in 100 μl of the respective supplemented medium and allowed to settle for 1 h at room temperature (RT) prior to cell culture incubation at 37°C with 5% CO2 and 95% humidity. The following day, the medium was replaced with 50 μl of the respective virus stock dilution giving rise to 5 to 50 plaques per 96-well plate. Fifty microliters of nelfinavir to obtain a 0.1 to 50 μM final concentration or the DMSO solvent control was also added, both in supplemented medium. For each experiment, a noninfected, treated control was performed. For uphill plaque assays, the medium volume was increased to 150 μl with identical virus and drug concentrations. For wash-in/washout experiments, the virus was incubated on cells in supplemented medium for 1 h at 37°C, cells were washed with PBS, and a 100-μl drug dilution in supplemented medium was added. All experiments were performed in four technical replicates or as indicated. Cells were incubated under standard cell culture conditions. At the indicated times postinfection, the cells were fixed, and the nuclei were stained for 1 h at RT by the addition of 33 μl 16% (wt/vol) paraformaldehyde (PFA) and 4 μg/ml Hoechst 33342 (Sigma-Aldrich, St. Louis, MO, USA) in PBS. Cells were washed three times with PBS and stored in PBS supplemented with 0.02% N3 for infections with viruses harboring a GFP transgene. For wild-type (wt) viruses, cells were quenched in PBS supplemented with 50 mM NH4Cl, permeabilized using 0.2% (vol/vol) Triton X-100 in PBS, and blocked with 0.5% (wt/vol) bovine serum albumin (BSA) in PBS. Cells were incubated with 381.7 ng/ml mouse anti-HAdV hexon protein antibody (Mab8052; Sigma-Aldrich, St. Louis, MO, USA) and subsequently stained using 2 μg/ml goat anti-mouse-Alexa Fluor 594 (catalog number A21203 or A32742; Thermo Fisher Scientific, Waltham, MA, USA). Plates were imaged on either an IXM-XL or an IXM-C automated high-throughput fluorescence microscope (Molecular Devices, San Jose, CA, USA) using a 4× objective in wide-field mode. Hoechst staining was recorded in the 4′,6-diamidino-2-phenylindole (DAPI) channel, the fluorescein isothiocyanate (FITC)/GFP channel was acquired for viral GFP, and the tetramethyl rhodamine isothiocyanate (TRITC)/Texas Red channel was acquired for hexon immunofluorescence staining.
(§2) The infection phenotype for each well was quantified using Plaque2.0 ([101]). The number of plaques was determined based on the infection signal (viral GFP or hexon immunofluorescence staining). Nuclei stained with Hoechst were segmented by using CellProfiler ([178]). Infected nuclei were classified based on the median infection signal per nucleus in CellProfiler. Data were plotted, and the EC50 (infected and treated cells), the TC50 (noninfected, treated cells), as well as the corresponding standard errors (SE) were determined using curve fitting in GraphPad (version 8.1.2; GraphPad Software, Inc.) using three-parameter inhibitor concentration-versus-response nonlinear regression. The mean TI50 was calculated as the […] ratio of the means. The TI50 SE was calculated by error propagation.

[4] = system: HAdV-B21a; experiment: as above; assay type: cell-based, human adenovirus
Method: as §1, §2

[5] = system: HAdV-B3-pIX-FS2A-GFP; experiment: as above; assay type: cell-based, human adenovirus
Method: as §1, §2

[6] = system: HAdV-C2; experiment: as above; assay type: cell-based, human adenovirus
Method: as §1, §2

[7] = system: HAdV-B14; experiment: as above; assay type: cell-based, human adenovirus
Method: as §1, §2

[8] = system: HAdV-B16; experiment: as above; assay type: cell-based, human adenovirus
Method: as §1, §2

[9] = system: rec700 (HAdV-C5/2); experiment: as above; assay type: cell-based, human adenovirus
Method: as §1, §2

[10] = system: HAdV-B35-pIX-FS2A-GFP; experiment: as above; assay type: cell-based, human adenovirus
Method: as §1, §2

[11] = system: HAdV-A31; experiment: as above; assay type: cell-based, human adenovirus
Method: as §1, §2

Cc1c(O)cccc1C(=O)N[C@@H](CSc1ccccc1)[C@H](O)CN1C[C@H]2CCCC[C@H]2C[C@H]1C(=O)NC(C)(C)C [Nelfinavir, Nelfinavir mesylate]
effect on proteolytic maturation of the virus by L3/p23 cysteine protease [1]: did not affect | TI50 (TC50/IC50) ([2]; MAdV-1-pIX-FS2A-GFP in CMT-93, 4 dpi, GFP): 1.03 | EC50 ([2]; Murine mastadenovirus A, CMT93): 20.7 µM | TI50 (TC50/IC50) ([3]; HAdV-B34 in A549, 4 dpi, Hexon): 6.40 | EC50 ([3]; Human adenovirus sp., HAdV-B34 in A549, fixation 4 dpi, read-out Hexon, plaque numbers): 3.18 µM | TI50 (TC50/IC50) ([4]; HAdV-B21a in A549, 4 dpi, Hexon): 1.27 | EC50 ([4]; Human adenovirus sp., HAdV-B21a in A549, fixation 4 dpi, read-out Hexon, plaque numbers): 16 µM | TI50 (TC50/IC50) ([5]; HAdV-B3-pIX-FS2A-GFP in A549, 3 dpi, Hexon): 1.50 | EC50 ([5]; Human adenovirus sp., A549): 10.2 µM | TI50 (TC50/IC50) ([6]; HAdV-C2 in A549, 4 dpi, Hexon): 71.09 | EC50 ([6]; Human adenovirus sp., HAdV-C2 in A549, fixation 4 dpi, read-out Hexon, plaque numbers): 240 nM | TI50 (TC50/IC50) ([7]; HAdV-B14 in A549, 3 dpi, Hexon): 14.22 | EC50 ([7]; Human adenovirus sp., HAdV-B14 in A549, fixation 3 dpi, read-out Hexon, plaque numbers): 840 nM | TI50 (TC50/IC50) ([8]; HAdV-B16 in A549, 4 dpi, Hexon): 1.66 | EC50 ([8]; Human adenovirus sp., HAdV-B16 in A549, fixation 4 dpi, read-out Hexon, plaque numbers): 12.3 µM | EC50 ([9]; Human adenovirus sp., A549): 70 nM | TI50 (TC50/IC50) ([9]; rec700 (HAdV-C5/2) in A549, 4 dpi, Hexon): 177.41 | TI50 (TC50/IC50) ([10]; HAdV-B35-pIX-FS2A-GFP in A549, 4 dpi, Hexon): 6.13 | EC50 ([10]; Human adenovirus sp., A549): 2490 nM | TI50 (TC50/IC50) ([11]; HAdV-A31 in A549, 6 dpi, Hexon): 1.35 | EC50 ([11]; Human adenovirus sp., HAdV-A31 in A549, fixation 6 dpi, read-out Hexon, plaque numbers): 14.1 µM
